Test results as given in the supplement of paper PMC10883282.
± gives the standard deviation of the averaged measurements.

Tests used:
Assay in all cases: relative viability vs DMSO control (72 h) (fraction); higher = more viable cells
SW872 = system: SW872
Method in brief: (§1)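 After seeding at densities set for 80–90% confluence in 384-well plates, sarcoma cell lines waited 24 h before 2.5 µl of serially diluted compound was added. Source plates held 10 mM down to 0.0002 mM. Plates were incubated 72 h at 37 °C with 5% CO2, with 0.1% DMSO vehicle and a 5 µM positive control, and relative viability was taken from ATPLite as percent growth averaged over up to triplicate wells, with 1 set as full and 0 as none.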

KHOS-240S = system: KHOS-240S
Method in brief: as §1

SK-LMS-1 = system: SK-LMS-1
Method in brief: as §1

SW1353 = system: SW1353
Method in brief: as §1

RD-ES = system: RD-ES
Method in brief: as §1

HT1080 = system: HT1080
Method in brief: as §1

RD = system: RD
Method in brief: as §1

SYO-1 = system: SYO-1
Method in brief: as §1

G401 = system: G401
Method in brief: as §1

HS729 = system: HS729
Method in brief: as §1

SW684 = system: SW684
Method in brief: as §1

KHOS-NP = system: KHOS-NP
Method in brief: as §1

## CS(=O)(=O)CCNCc1ccc(-c2ccc3ncnc(Nc4ccc(OCc5cccc(F)c5)c(Cl)c4)c3c2)o1 [Lapatinib]
SW872; 0.00017 µM
  relative viability: 1.03 ± 0.018
SW872; 0.00051 µM
  relative viability: 1.03 ± 0.058
SW872; 0.00152 µM
  relative viability: 1.03 ± 0.045
SW872; 0.00457 µM
  relative viability: 1.02 ± 0.018
SW872; 0.01372 µM
  relative viability: 1.01 ± 0.055
SW872; 0.04115 µM
  relative viability: 1.05 ± 0.026
SW872; 0.1235 µM
  relative viability: 1.05 ± 0.05
SW872; 0.3704 µM
  relative viability: 1.05 ± 0.076
SW872; 1.111 µM
  relative viability: 1.04 ± 0.084
SW872; 3.333 µM
  relative viability: 0.895 ± 0.02
SW872; 10 µM
  relative viability: 0.0477 ± 0.057
KHOS-240S; 0.00017 µM
  relative viability: 1.04 ± 0.055
KHOS-240S; 0.00051 µM
  relative viability: 1.05 ± 0.045
KHOS-240S; 0.00152 µM
  relative viability: 1.07 ± 0.043
KHOS-240S; 0.00457 µM
  relative viability: 1.06 ± 0.042
KHOS-240S; 0.01372 µM
  relative viability: 1.09 ± 0.06
KHOS-240S; 0.04115 µM
  relative viability: 1.09 ± 0.046
KHOS-240S; 0.1235 µM
  relative viability: 1.07 ± 0.021
KHOS-240S; 0.3704 µM
  relative viability: 1.09 ± 0.029
KHOS-240S; 1.111 µM
  relative viability: 1.08 ± 0.013
KHOS-240S; 3.333 µM
  relative viability: 0.65 ± 0.11
KHOS-240S; 10 µM
  relative viability: 0.345 ± 0.11
SK-LMS-1; 0.00017 µM
  relative viability: 1.1 ± 0.065
SK-LMS-1; 0.00051 µM
  relative viability: 1.09 ± 0.019
SK-LMS-1; 0.00152 µM
  relative viability: 1.08 ± 0.032
SK-LMS-1; 0.00457 µM
  relative viability: 1.13 ± 0.045
SK-LMS-1; 0.01372 µM
  relative viability: 1.17 ± 0.066
SK-LMS-1; 0.04115 µM
  relative viability: 1.15 ± 0.026
SK-LMS-1; 0.1235 µM
  relative viability: 1.07 ± 0.042
SK-LMS-1; 0.3704 µM
  relative viability: 1.1 ± 0.064
SK-LMS-1; 1.111 µM
  relative viability: 1.11 ± 0.038
SK-LMS-1; 3.333 µM
  relative viability: 0.824 ± 0.046
SK-LMS-1; 10 µM
  relative viability: 0.361 ± 0.03
SW1353; 0.00017 µM
  relative viability: 0.964 ± 0.021
SW1353; 0.00051 µM
  relative viability: 0.962 ± 0.041
SW1353; 0.00152 µM
  relative viability: 0.948 ± 0.039
SW1353; 0.00457 µM
  relative viability: 0.954 ± 0.035
SW1353; 0.01372 µM
  relative viability: 0.932 ± 0.046
SW1353; 0.04115 µM
  relative viability: 0.905 ± 0.037
SW1353; 0.1235 µM
  relative viability: 0.906 ± 0.04
SW1353; 0.3704 µM
  relative viability: 0.85 ± 0.022
SW1353; 1.111 µM
  relative viability: 0.863 ± 0.024
SW1353; 3.333 µM
  relative viability: 0.847 ± 0.023
SW1353; 10 µM
  relative viability: 0.807 ± 0.025
RD-ES; 0.00017 µM
  relative viability: 0.951 ± 0.039
RD-ES; 0.00051 µM
  relative viability: 0.948 ± 0.039
RD-ES; 0.00152 µM
  relative viability: 0.954 ± 0.048
RD-ES; 0.00457 µM
  relative viability: 0.958 ± 0.051
RD-ES; 0.01372 µM
  relative viability: 0.963 ± 0.018
RD-ES; 0.04115 µM
  relative viability: 0.964 ± 0.064
RD-ES; 0.1235 µM
  relative viability: 0.97 ± 0.044
RD-ES; 0.3704 µM
  relative viability: 0.977 ± 0.049
RD-ES; 1.111 µM
  relative viability: 0.951 ± 0.034
RD-ES; 3.333 µM
  relative viability: 0.931 ± 0.018
RD-ES; 10 µM
  relative viability: 0.909 ± 0.08
HT1080; 0.00017 µM
  relative viability: 1.04 ± 0.053
HT1080; 0.00051 µM
  relative viability: 1.035 ± 0.006
HT1080; 0.00152 µM
  relative viability: 1.04 ± 0.036
HT1080; 0.00457 µM
  relative viability: 1.05 ± 0.056
HT1080; 0.01372 µM
  relative viability: 1.07 ± 0.018
HT1080; 0.04115 µM
  relative viability: 1.04 ± 0.047
HT1080; 0.1235 µM
  relative viability: 1.04 ± 0.03
HT1080; 0.3704 µM
  relative viability: 1.059 ± 0.007
HT1080; 1.111 µM
  relative viability: 1.1 ± 0.068
HT1080; 3.333 µM
  relative viability: 1.09 ± 0.029
HT1080; 10 µM
  relative viability: 0.674 ± 0.072
RD; 0.00017 µM
  relative viability: 1.09 ± 0.095
RD; 0.00051 µM
  relative viability: 1.1 ± 0.069
RD; 0.00152 µM
  relative viability: 1.09 ± 0.083
RD; 0.00457 µM
  relative viability: 1.11 ± 0.062
RD; 0.01372 µM
  relative viability: 1.08 ± 0.071
RD; 0.04115 µM
  relative viability: 1.12 ± 0.053
RD; 0.1235 µM
  relative viability: 1.09 ± 0.051
RD; 0.3704 µM
  relative viability: 1.1 ± 0.038
RD; 1.111 µM
  relative viability: 1.1 ± 0.041
RD; 3.333 µM
  relative viability: 0.98 ± 0.05
RD; 10 µM
  relative viability: 0.0224 ± 0.013
SYO-1; 0.00017 µM
  relative viability: 0.955 ± 0.054
SYO-1; 0.00051 µM
  relative viability: 0.93 ± 0.035
SYO-1; 0.00152 µM
  relative viability: 0.958 ± 0.026
SYO-1; 0.00457 µM
  relative viability: 0.959 ± 0.02
SYO-1; 0.01372 µM
  relative viability: 0.936 ± 0.051
SYO-1; 0.04115 µM
  relative viability: 0.949 ± 0.064
SYO-1; 0.1235 µM
  relative viability: 0.934 ± 0.051
SYO-1; 0.3704 µM
  relative viability: 0.944 ± 0.039
SYO-1; 1.111 µM
  relative viability: 0.912 ± 0.03
SYO-1; 3.333 µM
  relative viability: 0.637 ± 0.024
SYO-1; 10 µM
  relative viability: 0.165 ± 0.12
G401; 0.00017 µM
  relative viability: 1.01 ± 0.029
G401; 0.00051 µM
  relative viability: 1.01 ± 0.012
G401; 0.00152 µM
  relative viability: 1.01 ± 0.012
G401; 0.00457 µM
  relative viability: 1.01 ± 0.027
G401; 0.01372 µM
  relative viability: 1.02 ± 0.035
G401; 0.04115 µM
  relative viability: 1.04 ± 0.014
G401; 0.1235 µM
  relative viability: 1.01 ± 0.015
G401; 0.3704 µM
  relative viability: 0.966 ± 0.049
G401; 1.111 µM
  relative viability: 1.02 ± 0.018
G401; 3.333 µM
  relative viability: 1.01 ± 0.042
G401; 10 µM
  relative viability: 0.789 ± 0.089
HS729; 0.00017 µM
  relative viability: 0.93 ± 0.042
HS729; 0.00051 µM
  relative viability: 0.935 ± 0.057
HS729; 0.00152 µM
  relative viability: 0.873 ± 0.049
HS729; 0.00457 µM
  relative viability: 0.878 ± 0.035
HS729; 0.01372 µM
  relative viability: 0.939 ± 0.018
HS729; 0.04115 µM
  relative viability: 0.921 ± 0.065
HS729; 0.1235 µM
  relative viability: 0.93 ± 0.046
HS729; 0.3704 µM
  relative viability: 0.887 ± 0.1
HS729; 1.111 µM
  relative viability: 0.879 ± 0.062
HS729; 3.333 µM
  relative viability: 0.794 ± 0.024
HS729; 10 µM
  relative viability: 0.134 ± 0.12
SW684; 0.00017 µM
  relative viability: 1.15 ± 0.026
SW684; 0.00051 µM
  relative viability: 1.13 ± 0.062
SW684; 0.00152 µM
  relative viability: 1.14 ± 0.032
SW684; 0.00457 µM
  relative viability: 1.13 ± 0.024
SW684; 0.01372 µM
  relative viability: 1.13 ± 0.042
SW684; 0.04115 µM
  relative viability: 1.17 ± 0.029
SW684; 0.1235 µM
  relative viability: 1.15 ± 0.065
SW684; 0.3704 µM
  relative viability: 1.14 ± 0.05
SW684; 1.111 µM
  relative viability: 1.19 ± 0.054
SW684; 3.333 µM
  relative viability: 1.15 ± 0.046
SW684; 10 µM
  relative viability: 0.707 ± 0.096
KHOS-NP; 0.00017 µM
  relative viability: 1.059 ± 0.0036
KHOS-NP; 0.00051 µM
  relative viability: 1.055 ± 0.0051
KHOS-NP; 0.00152 µM
  relative viability: 1.05 ± 0.011
KHOS-NP; 0.00457 µM
  relative viability: 1.07 ± 0.037
KHOS-NP; 0.01372 µM
  relative viability: 1.055 ± 0.0085
KHOS-NP; 0.04115 µM
  relative viability: 1.053 ± 0.01
KHOS-NP; 0.1235 µM
  relative viability: 1.06 ± 0.032
KHOS-NP; 0.3704 µM
  relative viability: 1.1 ± 0.033
KHOS-NP; 1.111 µM
  relative viability: 1.07 ± 0.012
KHOS-NP; 3.333 µM
  relative viability: 1.02 ± 0.035
KHOS-NP; 10 µM
  relative viability: 0.93 ± 0.018
